Reference: patent US8580517B2, “Biosensor and use thereof to identify therapeutic drug molecules and molecules binding orphan receptors” (priority 2003, dated 2013)
Entries after “also recorded” stand apart in the source; their conditions may differ.

Legend:
Type in all cases: cell-based
[1] = biological target: T1, M2 muscarinic acetylcholine receptors (Homo sapiens, UniProt P08172); assay: G protein biosensor FRET (CY/CC) imaging in CHO cells stably expressing M2 receptor; details: for FRET signal intensity on addition of the molecule: 100 μM, α-CFP/β-YFPγ biosensor; for FRET signal intensity on repeated addition of agonist and antagonist: Go biosensor, same cell, repeated additions; for CC emission intensity / CY emission intensity: carbachol 100 μM, then atropine 100 μM
T1 construct: expressed in transfected cells
T1 sequence (P08172 1-466): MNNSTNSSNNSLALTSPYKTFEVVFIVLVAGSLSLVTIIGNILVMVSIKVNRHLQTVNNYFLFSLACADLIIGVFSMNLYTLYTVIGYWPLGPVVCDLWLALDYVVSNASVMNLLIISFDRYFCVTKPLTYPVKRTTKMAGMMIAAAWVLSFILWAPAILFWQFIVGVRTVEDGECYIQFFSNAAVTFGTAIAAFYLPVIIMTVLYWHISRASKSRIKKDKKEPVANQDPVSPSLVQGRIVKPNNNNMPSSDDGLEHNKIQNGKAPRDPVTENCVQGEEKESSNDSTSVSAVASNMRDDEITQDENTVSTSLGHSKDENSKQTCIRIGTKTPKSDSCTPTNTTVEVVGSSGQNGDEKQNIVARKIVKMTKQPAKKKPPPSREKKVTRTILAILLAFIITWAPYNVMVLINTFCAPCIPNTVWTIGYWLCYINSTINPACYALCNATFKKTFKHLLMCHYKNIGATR
Procedure: All were transferred to pDEST12.2 mammalian expression vectors following the manufacturer's instructions (Invitrogen). […] Competent CHO cells expressing M2 were competently transfected with three pDEST12.2 carrying αo-CFP, β1-YFP and γ5. Stable transfectants were selected with G418 and coexpressors were isolated by flow cytometry and confirmed by differential fluorescence microscopy.
(§1) Microscopy, image acquisition and FRET analysis (i.e. image capture, recording and analysis) were carried out as follows (generally following the illustration in FIG. 3). Cells were seeded on glass coverslips (25 mm #1 from Warner Instruments) in 35 mm dishes and cultured overnight for imaging. Coverslips containing cells were mounted in a perfusion chamber of 0.36 ml internal volume (RC-21BR from Warner Instrument Corporation, 1141 Dixwell Ave., Hamden, Conn. 06514) containing Hank's Buffered Saline Solution (HBSS) supplemented with 10 mM Hepes pH 7.4 and 1 mg glucose/ml. The perfusion chamber was stage-mounted in an upright Zeiss Axioscope fluorescence microscope.
(§2) Agonists, antagonists or a molecule in the HBSS solution were injected manually (or using an automated valve based system driven pneumatically or by gravity) at a rate of about 2 ml/min for 45 seconds through a secondary inlet of the chamber. Images were acquired at the indicated times. Cells were illuminated with a 50 W mercury lamp (or a 100 W mercury lamp) through a 20% neutral density filter. The filter wheels were run by a Sutter Lambda 10-2 device, a high speed excitation filter wheel that utilizes a direct stepper motor. (Sutter Instrument Company, 51 Digital Drive, Novato, Calif. 94949). In an aspect, power to operate instruments such as the microscope, pumps, motor(s), camera(s), computer(s) control system is supplied by 110 volt electric which is supplied to the instruments and turned on at the startup.
Filters were used in combination with appropriate beam splitters in the filter cube. For CC (cyan) images: D436/20 excitation (x), D480/40 emission (m) and 455DCLP beam splitter; for CY (FRET) images: D436/20x, D535/30m and 455DCLP beam splitter; for YY (yellow) images: the filters D500/20x, D535/30m and 515LP beam splitter. All filters were from Chroma. Images were acquired using a Hamamatsu CCD Orca-ER Camera with 4×4 binning. Exposure times were 1 sec for each CC or CY image. Images were acquired and captured of the FRET signal every 15 sec for a total of 4 or 6 minutes and stored as 12-bit gray scale image-stacks using MetaVue/Metamorph software (Universal Imaging Corporation, 402 Boot Road, Downington, Pa. 19335). Both camera and filter wheels were controlled peripherally using MetaVue from a Dell Computer Workstation (Dell Computer, Houston, Tex.) Images were processed using Metamorph (Universal Imaging) in a Dell Computer Workstation. […] Average intensities in these regions were measured. Maximum intensity per pixel in selected regions were ensured to be lower than the maximum value on the available 12-bit gray scale (4095). Ratios of the CY over CC intensities from these regions were plotted to obtain the FRET profiles.
Agonist concentration dependence of the decrease in the FRET signal: Images (emission spectra) of live functional biosensor cells were captured and recorded as above for about six minutes. […] The regression lines were drawn using GraphPad (Prizm). The percentage of activation by submaximal doses was determined by the formula 100(Rx−Ro)/(Rm−Ro). Rx, Ro and Rm are the numerical values of the respective regression lines at the 210 second elapsed time point where Ro was the initial baseline, Rx was the submaximal response and Rm was the maximal response.

[2] = system: human adenosine receptors; assay: G protein biosensor FRET profile in biosensor cells expressing adenosine receptor; details: 50 μM
Procedure: as §1
as §2, with “(Sutter Instrument Company, 51 Digital Drive, Novato, Calif. 94949). In an aspect, power to operate instruments such as the microscope, pumps, motor(s), camera(s), computer(s) control system is supplied by 110 volt electric which is supplied to the instruments and turned on at the startup.” left out
(§3) Filters were used in combination with appropriate beam splitters in the filter cube. […] Average intensities in these regions were measured. […]

[3] = biological target: T1, M2 muscarinic acetylcholine receptors; assay: G protein biosensor FRET (CY/CC) imaging in CHO cells stably expressing M2 receptor; details: biosensor with CFP tagged α, YFP tagged γ, untagged β subunit
[4] = biological target: T2, human serotonin receptors (Type 1A) (Homo sapiens, UniProt P08908); assay: G protein biosensor FRET profile in biosensor cells expressing serotonin receptors
T2 construct: expressed in transfected cells; host or cells: Biosensor cells
T2 sequence (P08908 1-422): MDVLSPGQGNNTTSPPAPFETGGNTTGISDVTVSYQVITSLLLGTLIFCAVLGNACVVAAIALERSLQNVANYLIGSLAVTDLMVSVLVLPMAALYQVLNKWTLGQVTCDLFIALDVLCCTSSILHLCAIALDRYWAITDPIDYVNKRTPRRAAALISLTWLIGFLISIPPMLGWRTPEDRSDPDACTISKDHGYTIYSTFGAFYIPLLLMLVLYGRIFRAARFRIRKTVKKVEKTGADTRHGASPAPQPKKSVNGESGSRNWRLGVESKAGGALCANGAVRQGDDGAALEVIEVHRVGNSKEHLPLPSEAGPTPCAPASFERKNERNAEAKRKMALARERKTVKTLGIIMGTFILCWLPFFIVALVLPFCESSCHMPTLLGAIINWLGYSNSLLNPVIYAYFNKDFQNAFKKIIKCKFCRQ
Procedure: as §1
as §2, with “(Sutter Instrument Company, 51 Digital Drive, Novato, Calif. 94949). In an aspect, power to operate instruments such as the microscope, pumps, motor(s), camera(s), computer(s) control system is supplied by 110 volt electric which is supplied to the instruments and turned on at the startup.” left out
as §3

| Compound | FRET signal intensity on addition of the molecule [1] | FRET signal intensity on repeated addition of agonist and antagonist [1] | CC emission intensity [1] | CY emission intensity [1] | further results |
| --- | --- | --- | --- | --- | --- |
| CC(C)NCC(O)c1ccc(O)c(O)c1 (centres unmarked) [Isoproterenol, isoproterenol] | no effect on FRET signal intensity |  |  |  |  |
| OC[C@H]1O[C@@H](n2cnc3c(NC4CCCCC4)ncnc32)[C@H](O)[C@@H]1O [adenosine N6-Cyclohexyl] |  |  |  |  | FRET signal intensity on addition of agonist [2]: decreased the FRET signal intensity significantly |
| CN1[C@@H]2CC[C@H]1C[C@@H](OC(=O)C(CO)c1ccccc1)C2 (some centres unmarked) [atropine] |  | increases | CC emission intensity decreases | increases | carbachol-induced loss of FRET after pretreatment with antagonist ([1]; atropine 10 μM present, carbachol 100 μM added): no longer elicited the loss of FRET; FRET signal intensity on addition of antagonist after agonist ([1]; atropine 100 μM after carbachol 100 μM): FRET signal intensity increases strikingly |
| C[N+](C)(C)CCOC(N)=O [carbachol] | reduced FRET signal intensity; also recorded: FRET signal intensity decreases | decreases | CC emission intensity increases | CY emission intensity decreases | FRET signal intensity on addition of agonist [3]: decrease in FRET signal intensity |
| CC(C)(C)NCC(O)COc1cccc2[nH]c(C#N)cc12 (centres unmarked) [cyanopindolol] |  |  |  |  | FRET signal intensity on addition of antagonist after agonist ([4]; cyanopindolol 150 μM after serotonin 20 μM): increase in the FRET signal intensity |
| NCCc1c[nH]c2ccc(O)cc12 [serotonin] |  |  |  |  | FRET signal intensity on addition of agonist ([4]; 20 μM): decreased the FRET signal intensity significantly; also recorded: decrease in the FRET signal intensity |
